Data: US7868163B2, “Adenyl dinucleotides with antitumour activity and a method of preparing thereof” (Universita' Degli Studi Di Genova, priority 2005, dated 2011)
Read-outs that look alike come from different tables or passages of the source.

How the values were obtained:
CD38^− HeLa cells = test: Intracellular calcium assay (FURA 2-AM), CD38- HeLa; format: cell-based, human; conditions: 10 μM for 18 hours; for tapsigargine-induced release of calcium from ER stores [Ca^2+]i: 1 μM tapsigargine
Method: (§1) Adherent CD38^+ and CD38^− human HeLa cells on 20 mm-diameter coverslips were incubated in complete medium in the presence of […] P18 or P24 for […]. The cells were then washed, incubated with 6 μM Fura 2-acetoxymethyl ester (FURA 2-AM) in standard saline (135 mM NaCl, 5.4 mM KCl, 1.8 mM CaCl2, 1 mM MgCl2, 5 mM Hepes, 10 mM glucose, pH 7.4) for 45 minutes at 37° C. and then washed several times with saline. Calcium measurements were performed in a 200-μl chamber mounted on an inverted microscope, as described in detail in Zocchi E., et al. (1998) J. Biol. Chem. 273, 8017-8024. After determination of basal [Ca^2+]i levels, 1 μM tapsigargine was added to induce the release of calcium from tapsigargine-sensitive stores ([…]). The parameter values needed for calibration were obtained at the end of the experimental measurements, as described in Zocchi E., et al. (1998) J. Biol. Chem. 273, 8017-8024.
(§2) Basal cytosolic calcium and tapsigargine-induced release of calcium from […] (ER) stores (in bold in Table 4) were measured in CD38^+ and CD38^− HeLa cells loaded with FURA 2-AM and incubated in the absence (control) or in the presence of P18 or P24 at a concentration of 10 μM for 18 hours. The results obtained, expressed as [Ca^2+]I nanomolarity, are summarised in Table 4, showing mean results from 8 separate experiments (s.d.≦15% of the mean value).

[1] = test system: CFC (colony forming cells); test: CFC colony growth from cord blood mononuclear cells in semi-solid medium; format: cell-based, human; conditions: for IC50: read-out: IC50, inhibition of CFC colony growth; for reduction of toxicity by digestion with NPP and CIP: FIG. 4, CFC growth
Method: Mononuclear cells isolated from cord blood were incubated in the presence of various concentrations of P18 (▴), P24 (▪) and the iso-adenosine units resulting from the enzymatic digestion of P18 (Δ) and P24 (□). After 24 hours, aliquots of cells (1-2×10^4) were seeded in semi-solid medium to allow for colony growth. Results are expressed as percentage of inhibition of colony growth compared with controls, represented by cells incubated with the same dilution of chromatographic buffer as present in the HPLC-purified compounds. The IC50 values were obtained from the logarithmic regression curves (R≧0.97). The results shown in this figure are the mean from at least three different experiments.
Mononuclear cells were isolated from cord blood (CB MNC) by a density gradient, washed by centrifugation and resuspended in complete medium (Mosmann, T. (1983) J. Immunol. Methods 65, 55-63). Cells (10^6/ml) were incubated for 24 hours in complete medium in the presence of different dinucleotides at concentrations comprised between 20 and 0.4 μM. Then, aliquots of cells (1-2×10^4) were seeded in semi-solid medium, supplemented with haemopoietic growth factors (Methocult, Stem Cell Technologies, Vancouver, BC), in order to allow colonies to develop. After 2 weeks in culture, the colonies which were grown were microscopically identified according to standard criteria (CFU-E, CFU-GM and CFU-GEM) and counted: each colony identifies a colony forming cell (CFC).

CD38^+ HeLa cells = test: Intracellular calcium assay (FURA 2-AM), CD38+ HeLa; format: cell-based, human; conditions: 10 μM for 18 hours; for tapsigargine-induced release of calcium from ER stores [Ca^2+]i: 1 μM tapsigargine
Method: as §1, §2

Recombinant CD38 = test: Hydrolysis by recombinant CD38
Method: (§3) ADP-ribosyl cyclases from lower and higher Metazoa were incubated in the presence of 0.1 mM cADPR and 1 mM adenine at pH 7.4 in 10 mM Tris-HCl (A, B and C) or in PBS-glucose (D) at 22° C. (A and B) or at 37° C. (C and D) for 4 hours. Aliquots of the various incubations were deproteinised with TCA (trichloroacetic acid) and subjected to HPLC (analytical phosphate). Chromatograms representative of each incubation are shown. A. A. polypoides; B. A. californica; C. Human CD38 (recombinant); D. Human HeLa cells transfected with sense and antisense human CD38 (dashed chromatogram).
(§4) In table 1, the absolute values of the peak-forming and -hydrolysing activities are compared with the cADPR-forming and -hydrolysing activities for each enzyme. The activities are expressed as nmol/min/mg.

Acid hydrolysis = format: physicochemical; conditions: yielding adenine and ADPR
[2] = molecular target: NAD-glycohydrolase (NAD-ase, from Neurospora) (Neurospora crassa, UniProt Q7S936); test: Resistance to NAD-glycohydrolase catalysed hydrolysis
Method: The HPLC fractions were lyophilised, resuspended in 200 μl water and the pH eas adjusted to 7.5 with 5N NaOH. Then, in order to remove all traces of NAD^+ and cADPR (which might interfere with the enzymatic assay), NAD-glycohydrolase (NAD-ase, from Neurospora, Sigma) (0.013 IU), recombinant CD38 (0.1 μg, provided by Prof. H. C. Lee, Minneapolis, Minn.) and 2 mM MgCl2 were added to each fraction. […] All fractions were incubated at 37° C. for 18 hours, and the enzymes were removed by filtration with Immobilon-P membranes (Millipore, Bedford, Mass.). The samples were then subdivided into two aliquots and the P18 determination reactions were performed in 96 well plates, at room temperature. 50 μl of a mixture containing 30 mM nicotinamide, 100 mM sodium phosphate, with or without 0.1 μg/μl of ADP-ribosyl cyclase purified from A. polypoides, were added to 100 μl of each sample.

[3] = test system: A. polypoides ADP-ribosyl cyclase; test: Hydrolysis by purified Axinella polypoides ADP-ribosyl cyclase; conditions: purified A. polypoides cyclase; P18 to cADPR and adenine
Method: as §3, §4

[4] = molecular target: T1, A. californica ADP-ribosyl cyclase (Aplysia californica, UniProt P29241); test: Hydrolysis by Aplysia californica ADP-ribosyl cyclase; format: in vitro ADME; conditions: P18 to adenine and ADPR
T1 construct: The cyclase purified from the mollusc Aplysia californica was purchased from Sigma; purchased Sigma; host or cells: purified from the mollusc
T1 sequence (P29241 25-282): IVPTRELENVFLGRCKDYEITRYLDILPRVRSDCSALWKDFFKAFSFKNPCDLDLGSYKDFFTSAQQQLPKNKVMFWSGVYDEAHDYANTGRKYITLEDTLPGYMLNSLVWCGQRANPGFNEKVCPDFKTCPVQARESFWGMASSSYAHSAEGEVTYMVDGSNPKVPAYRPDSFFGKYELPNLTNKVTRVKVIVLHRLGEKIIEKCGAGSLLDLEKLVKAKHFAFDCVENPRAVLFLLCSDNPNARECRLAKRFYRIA
Method: (A and B) or at 37° C. (C and D) for 4 hours. […] Chromatograms representative of each incubation are shown. A. A. polypoides; B. A. californica; C.
The activities are expressed as nmol/min/mg.

[5] = 24 hours incubation of cord blood mononuclear cells, colonies counted after 2 weeks

Chain of NAD-glycohydrolase (NAD-ase, from Neurospora) (Q7S936 20-243): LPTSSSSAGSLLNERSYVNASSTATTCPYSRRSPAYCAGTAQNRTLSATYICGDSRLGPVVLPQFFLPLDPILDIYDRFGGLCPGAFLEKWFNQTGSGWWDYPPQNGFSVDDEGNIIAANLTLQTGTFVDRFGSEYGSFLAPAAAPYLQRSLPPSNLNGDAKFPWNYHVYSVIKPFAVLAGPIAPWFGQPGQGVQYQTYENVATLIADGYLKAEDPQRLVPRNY

Row | hydrolysis activity (Recombinant CD38) | Compound | ER stores-calcium, % of the control (CD38^− HeLa cells) [%] | basal [Ca^2+]i, % of the control (CD38^− HeLa cells) [%] | basal cytosolic free calcium [Ca^2+]i (CD38^− HeLa cells) [nM] | tapsigargine-induced release of calcium from ER stores [Ca^2+]i (CD38^− HeLa cells) [nM] | IC50 [1, 5] [nM] | reduction of toxicity by digestion with NPP and CIP [1] [fold] | ER stores-calcium, % of the control (CD38^+ HeLa cells) [%] | basal [Ca^2+]i, % of the control (CD38^+ HeLa cells) [%] | basal cytosolic free calcium [Ca^2+]i (CD38^+ HeLa cells) [nM] | tapsigargine-induced release of calcium from ER stores [Ca^2+]i (CD38^+ HeLa cells) [nM] | sensitivity to acid hydrolysis (Acid hydrolysis) | resistance to NAD-ase catalysed hydrolysis [2] | hydrolysis activity [3] | IC50 ([1]; 2 hours of incubation) [nM] | resistance to CD38 catalysed hydrolysis (Recombinant CD38; recombinant CD38) | hydrolysis activity (Recombinant CD38; recombinant CD38, P18 and P24 to adenine and ADPR) | hydrolysis activity [4]
1 | 0.25^1 nmol/min/mg | Nc1ncn([C@@H]2O[C@H](COP(=O)(O)OP(=O)(O)OC[C@H]3O[C@@H](n4cnc5c(N)ncnc54)[C@H](O)[C@@H]3O)[C@@H](O)[C@H]2O)c2ncnc1-2 [P24] | 60 | 191 | 44 | 290 | 180 | 30 | 80 | 154 | 57 | 203 | sensitive to acid hydrolysis | – | – | – | – | – | –
2 | – | Nc1ncnc2c1ncn2[C@@H]1O[C@H](COP(=O)(O)OP(=O)(O)OC[C@H]2O[C@@H](n3cnc4ncnc-4c3N)[C@H](O)[C@@H]2O)[C@@H](O)[C@H]1O [P18] | 78 | 52 | 12 | 366 | 1000 | 40 | 48 | 41 | 16 | 123 | sensitive to acid hydrolysis | resistance | 10.5^2 nmol/min/mg | 30000 | resistance | 6.0^1 nmol/min/mg | 3.5^1 nmol/min/mg
